Laboratory results from publication PMC5362750, “Discovery of Potent, Selective, and Orally Bioavailable Small-Molecule Modulators of the Mediator Complex-Associated Kinases CDK8 and CDK19” (Journal of Medicinal Chemistry, 2016).

Columns and labels:
H3 (h) = target: T1, H3 (h) (Homo sapiens, UniProt Q9Y5N1); experiment: CEREP binding assay; conditions: agonist radioligand, read-out: % Inhibition of Control Specific Binding
T1 construct: purchased Millipore (KinaseProfiler) kinase panel

BLT1 (LTB4) (h) = target: T2, BLT1 (LTB4) (h) (Homo sapiens, UniProt Q15722); experiment: CEREP binding assay; conditions: agonist radioligand, read-out: % Inhibition of Control Specific Binding
T2 construct: purchased Millipore (KinaseProfiler) kinase panel

[1] = human
EPHA4 = target: T3, EPHA4 (Homo sapiens, UniProt P54764); experiment: Kinase panel (Millipore); format: biochemical; conditions: 1 µM, ATP at Km
T3 construct: purchased Millipore (KinaseProfiler) kinase panel
T3 sequence (P54764 20-986): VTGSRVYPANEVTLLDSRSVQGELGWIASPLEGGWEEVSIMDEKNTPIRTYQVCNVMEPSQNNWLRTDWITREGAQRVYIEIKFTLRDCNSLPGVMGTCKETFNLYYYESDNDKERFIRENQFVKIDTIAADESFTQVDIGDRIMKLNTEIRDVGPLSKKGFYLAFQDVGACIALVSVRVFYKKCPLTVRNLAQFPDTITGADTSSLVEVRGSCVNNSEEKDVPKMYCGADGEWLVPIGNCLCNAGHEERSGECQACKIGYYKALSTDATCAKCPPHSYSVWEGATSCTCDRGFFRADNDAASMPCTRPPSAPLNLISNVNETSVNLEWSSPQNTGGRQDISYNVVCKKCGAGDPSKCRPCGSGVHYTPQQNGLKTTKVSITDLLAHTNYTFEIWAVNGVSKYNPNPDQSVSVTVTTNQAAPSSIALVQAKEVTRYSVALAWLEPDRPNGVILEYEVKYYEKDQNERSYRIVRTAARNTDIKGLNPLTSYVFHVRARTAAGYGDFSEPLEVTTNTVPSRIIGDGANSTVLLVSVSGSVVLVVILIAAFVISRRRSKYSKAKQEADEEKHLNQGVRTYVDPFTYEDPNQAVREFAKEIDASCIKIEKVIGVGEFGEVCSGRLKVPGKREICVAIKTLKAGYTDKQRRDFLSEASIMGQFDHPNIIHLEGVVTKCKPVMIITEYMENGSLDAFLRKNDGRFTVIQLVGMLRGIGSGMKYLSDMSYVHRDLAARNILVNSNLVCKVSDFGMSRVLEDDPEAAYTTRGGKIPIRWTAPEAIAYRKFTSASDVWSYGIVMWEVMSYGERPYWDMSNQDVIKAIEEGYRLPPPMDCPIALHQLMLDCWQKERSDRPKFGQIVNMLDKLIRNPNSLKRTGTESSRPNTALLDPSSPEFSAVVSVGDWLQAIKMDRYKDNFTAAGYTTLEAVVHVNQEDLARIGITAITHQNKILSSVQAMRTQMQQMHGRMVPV

EPHA3 = target: T4, EPHA3 (Homo sapiens, UniProt P29320); experiment: Kinase panel (Millipore); format: biochemical; conditions: 1 µM, ATP at Km
T4 construct: purchased Millipore (KinaseProfiler) kinase panel

ARG = ARG (Homo sapiens, UniProt P42684); experiment: Kinase panel (Millipore); format: biochemical; conditions: 1 µM, ATP at Km
EPHB4 = target: T5, EPHB4 (Homo sapiens, UniProt P54760); experiment: Kinase panel (Millipore); format: biochemical; conditions: 1 µM, ATP at Km
T5 construct: purchased Millipore (KinaseProfiler) kinase panel

FER = target: T6, FER (Homo sapiens, UniProt P16591); experiment: Kinase panel (Millipore); format: biochemical; conditions: 1 µM, ATP at Km
T6 construct: purchased Millipore (KinaseProfiler) kinase panel

FLT1 = target: T7, FLT1 (Homo sapiens, UniProt P17948); experiment: Kinase panel (Millipore); format: biochemical; conditions: 1 µM, ATP at Km
T7 construct: purchased Millipore (KinaseProfiler) kinase panel

GSK3ALPHA = GSK3ALPHA (Homo sapiens, UniProt P49840); experiment: Kinase panel (Millipore); format: biochemical; conditions: 1 µM, ATP at Km
Sequence of GSK3ALPHA (P49840 whole entry): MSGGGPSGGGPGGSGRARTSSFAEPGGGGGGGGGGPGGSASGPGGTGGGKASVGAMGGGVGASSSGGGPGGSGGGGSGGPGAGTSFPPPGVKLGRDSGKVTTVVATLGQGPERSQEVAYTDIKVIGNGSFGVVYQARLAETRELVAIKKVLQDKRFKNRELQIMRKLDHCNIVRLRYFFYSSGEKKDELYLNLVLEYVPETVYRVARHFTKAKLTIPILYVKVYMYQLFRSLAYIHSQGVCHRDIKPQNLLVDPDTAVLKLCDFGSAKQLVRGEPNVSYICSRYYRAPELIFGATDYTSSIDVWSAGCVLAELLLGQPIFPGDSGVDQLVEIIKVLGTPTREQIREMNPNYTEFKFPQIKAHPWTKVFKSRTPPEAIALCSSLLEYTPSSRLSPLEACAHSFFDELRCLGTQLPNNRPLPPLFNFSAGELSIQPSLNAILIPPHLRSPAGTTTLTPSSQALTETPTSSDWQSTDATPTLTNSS

HCK = HCK (Homo sapiens, UniProt P08631); experiment: Kinase panel (Millipore); format: biochemical; conditions: 1 µM, ATP at Km
Sequence of HCK (P08631 whole entry): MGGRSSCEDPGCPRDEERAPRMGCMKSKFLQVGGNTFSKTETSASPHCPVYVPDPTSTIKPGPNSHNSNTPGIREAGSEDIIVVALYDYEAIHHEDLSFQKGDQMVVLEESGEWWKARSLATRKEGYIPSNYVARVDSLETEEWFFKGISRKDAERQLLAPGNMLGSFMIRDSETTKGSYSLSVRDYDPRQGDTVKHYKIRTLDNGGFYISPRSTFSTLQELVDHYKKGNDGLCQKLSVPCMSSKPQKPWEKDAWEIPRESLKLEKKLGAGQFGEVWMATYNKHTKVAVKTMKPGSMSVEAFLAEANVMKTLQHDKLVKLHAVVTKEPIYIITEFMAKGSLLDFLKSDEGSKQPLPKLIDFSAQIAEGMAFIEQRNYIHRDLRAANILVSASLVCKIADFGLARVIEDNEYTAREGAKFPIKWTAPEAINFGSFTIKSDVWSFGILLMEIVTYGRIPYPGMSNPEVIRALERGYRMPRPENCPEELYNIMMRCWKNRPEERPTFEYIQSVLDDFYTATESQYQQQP

HIPK3 = target: T8, HIPK3 (Homo sapiens, UniProt Q9H422); experiment: Kinase panel (Millipore); format: biochemical; conditions: 1 µM, ATP at Km
T8 construct: purchased Millipore (KinaseProfiler) kinase panel

NEK6 = target: T9, NEK6 (Homo sapiens, UniProt Q9HC98); experiment: Kinase panel (Millipore); format: biochemical; conditions: 1 µM, ATP at Km
T9 construct: purchased Millipore (KinaseProfiler) kinase panel

EEF-2K = EEF-2K (Homo sapiens, UniProt O00418); experiment: Kinase panel (Millipore); format: biochemical; conditions: 1 µM, ATP at Km
EGFR = EGFR (Homo sapiens, UniProt P00533); experiment: Kinase panel (Millipore); format: biochemical; conditions: 1 µM, ATP at Km
JNK1ALPHA1 = JNK1ALPHA1 (Homo sapiens, UniProt P45983); experiment: Kinase panel (Millipore); format: biochemical; conditions: 1 µM, ATP at Km
PAK5 = PAK5 (Homo sapiens, UniProt Q9P286); experiment: Kinase panel (Millipore); format: biochemical; conditions: 1 µM, ATP at Km
JNK2ALPHA2 = JNK2ALPHA2 (Homo sapiens, UniProt P45984); experiment: Kinase panel (Millipore); format: biochemical; conditions: 1 µM, ATP at Km
FAK = FAK (Homo sapiens, UniProt Q05397); experiment: Kinase panel (Millipore); format: biochemical; conditions: 1 µM, ATP at Km
RSK4 = target: T10, RSK4 (Homo sapiens, UniProt Q9UK32); experiment: Kinase panel (Millipore); format: biochemical; conditions: 1 µM, ATP at Km
T10 construct: purchased Millipore (KinaseProfiler) kinase panel

PIM-2 = PIM-2 (Homo sapiens, UniProt Q9P1W9); experiment: Kinase panel (Millipore); format: biochemical; conditions: 1 µM, ATP at Km
PKCALPHA = PKCALPHA (Homo sapiens, UniProt P17252); experiment: Kinase panel (Millipore); format: biochemical; conditions: 1 µM, ATP at Km
PKCEPSILON = target: T11, PKCEPSILON (Homo sapiens, UniProt Q02156); experiment: Kinase panel (Millipore); format: biochemical; conditions: 1 µM, ATP at Km
T11 construct: purchased Millipore (KinaseProfiler) kinase panel

PKCZETA = target: T12, PKCZETA (Homo sapiens, UniProt Q05513); experiment: Kinase panel (Millipore); format: biochemical; conditions: 1 µM, ATP at Km
T12 construct: purchased Millipore (KinaseProfiler) kinase panel

ACK1 = target: T13, ACK1 (Homo sapiens, UniProt Q07912); experiment: Kinase panel (Millipore); format: biochemical; conditions: 1 µM, ATP at Km
T13 construct: purchased Millipore (KinaseProfiler) kinase panel
T13 sequence (Q07912 whole entry): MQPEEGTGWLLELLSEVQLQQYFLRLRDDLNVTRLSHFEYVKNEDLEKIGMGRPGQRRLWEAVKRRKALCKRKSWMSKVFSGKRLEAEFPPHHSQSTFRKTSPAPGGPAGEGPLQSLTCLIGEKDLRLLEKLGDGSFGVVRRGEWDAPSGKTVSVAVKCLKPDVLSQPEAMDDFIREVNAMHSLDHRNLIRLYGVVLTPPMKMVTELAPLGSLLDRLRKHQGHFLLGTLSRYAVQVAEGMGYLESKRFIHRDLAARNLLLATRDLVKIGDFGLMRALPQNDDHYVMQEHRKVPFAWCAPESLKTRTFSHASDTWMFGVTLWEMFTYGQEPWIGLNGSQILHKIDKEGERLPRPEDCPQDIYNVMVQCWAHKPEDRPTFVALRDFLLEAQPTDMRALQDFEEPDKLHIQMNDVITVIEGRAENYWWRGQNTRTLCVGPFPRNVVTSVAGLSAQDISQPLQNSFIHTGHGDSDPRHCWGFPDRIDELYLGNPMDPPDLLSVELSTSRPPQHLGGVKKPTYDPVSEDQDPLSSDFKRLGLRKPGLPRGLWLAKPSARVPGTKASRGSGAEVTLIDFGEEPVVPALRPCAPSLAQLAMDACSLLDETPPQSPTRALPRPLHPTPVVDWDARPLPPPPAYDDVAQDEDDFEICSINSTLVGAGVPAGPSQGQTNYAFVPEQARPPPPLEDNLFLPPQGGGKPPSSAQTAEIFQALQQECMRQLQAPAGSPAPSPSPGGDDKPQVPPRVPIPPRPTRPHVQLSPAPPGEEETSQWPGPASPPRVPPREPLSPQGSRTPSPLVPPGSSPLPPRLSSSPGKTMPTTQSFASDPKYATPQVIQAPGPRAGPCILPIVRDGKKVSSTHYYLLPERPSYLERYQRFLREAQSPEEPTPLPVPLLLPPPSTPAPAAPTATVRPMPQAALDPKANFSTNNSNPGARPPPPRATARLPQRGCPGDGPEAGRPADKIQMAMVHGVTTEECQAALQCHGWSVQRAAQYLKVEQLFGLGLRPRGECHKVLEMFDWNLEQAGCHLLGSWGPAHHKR

PKG1BETA = target: T14, PKG1BETA (Homo sapiens, UniProt Q13976); experiment: Kinase panel (Millipore); format: biochemical; conditions: 1 µM, ATP at Km
T14 construct: purchased Millipore (KinaseProfiler) kinase panel

YES = YES (Homo sapiens, UniProt P07947); experiment: Kinase panel (Millipore); format: biochemical; conditions: 1 µM, ATP at Km
ZIPK = ZIPK (Homo sapiens, UniProt O43293); experiment: Kinase panel (Millipore); format: biochemical; conditions: 1 µM, ATP at Km
CK1GAMMA1 = CK1GAMMA1 (Homo sapiens, UniProt Q9HCP0); experiment: Kinase panel (Millipore); format: biochemical; conditions: 1 µM, ATP at Km
Sequence of CK1GAMMA1 (Q9HCP0 whole entry): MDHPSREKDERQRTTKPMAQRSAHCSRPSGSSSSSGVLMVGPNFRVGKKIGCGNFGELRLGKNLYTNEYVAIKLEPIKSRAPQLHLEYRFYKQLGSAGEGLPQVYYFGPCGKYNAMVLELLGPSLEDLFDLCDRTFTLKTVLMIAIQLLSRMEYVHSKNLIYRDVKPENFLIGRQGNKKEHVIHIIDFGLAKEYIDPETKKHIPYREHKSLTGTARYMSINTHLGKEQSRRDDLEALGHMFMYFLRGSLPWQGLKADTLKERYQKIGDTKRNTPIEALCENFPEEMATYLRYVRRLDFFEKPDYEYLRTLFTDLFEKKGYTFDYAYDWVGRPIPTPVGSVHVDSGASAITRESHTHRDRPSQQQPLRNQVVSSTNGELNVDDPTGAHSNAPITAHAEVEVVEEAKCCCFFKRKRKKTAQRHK

PTK5 = target: T15, PTK5 (Homo sapiens, UniProt P42685); experiment: Kinase panel (Millipore); format: biochemical; conditions: 1 µM, ATP at Km
T15 construct: purchased Millipore (KinaseProfiler) kinase panel
T15 sequence (P42685 whole entry): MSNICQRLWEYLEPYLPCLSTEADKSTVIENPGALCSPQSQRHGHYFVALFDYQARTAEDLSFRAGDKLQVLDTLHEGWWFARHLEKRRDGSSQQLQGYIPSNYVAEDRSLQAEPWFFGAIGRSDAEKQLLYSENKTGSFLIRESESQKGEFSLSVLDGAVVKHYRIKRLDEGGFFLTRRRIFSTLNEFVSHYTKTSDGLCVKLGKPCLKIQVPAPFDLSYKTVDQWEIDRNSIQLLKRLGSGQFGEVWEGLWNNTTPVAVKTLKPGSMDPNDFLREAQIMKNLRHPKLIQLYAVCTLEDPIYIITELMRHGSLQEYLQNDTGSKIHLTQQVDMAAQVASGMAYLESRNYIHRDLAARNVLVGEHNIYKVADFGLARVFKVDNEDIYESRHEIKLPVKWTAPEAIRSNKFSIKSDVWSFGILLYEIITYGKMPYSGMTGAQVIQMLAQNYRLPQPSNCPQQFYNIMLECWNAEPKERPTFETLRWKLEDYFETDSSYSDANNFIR

GRK6 = target: T16, GRK6 (Homo sapiens, UniProt P43250); experiment: Kinase panel (Millipore); format: biochemical; conditions: 1 µM, ATP at Km
T16 construct: purchased Millipore (KinaseProfiler) kinase panel

CAMKIIBETA = CAMKIIBETA (Homo sapiens, UniProt Q13554); experiment: Kinase panel (Millipore); format: biochemical; conditions: 1 µM, ATP at Km
AMPA = conditions: 10 µM, agonist radioligand
PCP = conditions: 10 µM, antagonist radioligand
[2] = test system: Ca2+ channel (L, dihydropyridine site); conditions: 10 µM, antagonist radioligand
CKIT(D816V) = CKIT(D816V) (Homo sapiens, UniProt P10721, D816V); conditions: 1 µM, ATP at Km
FLT3(D835Y) = FLT3(D835Y) (Homo sapiens, UniProt P36888, D835Y); conditions: 1 µM, ATP at Km
CK2ALPHA2 = CK2ALPHA2 (Homo sapiens, UniProt P19784); conditions: 1 µM, ATP at Km
Sequence of CK2ALPHA2 (P19784 whole entry): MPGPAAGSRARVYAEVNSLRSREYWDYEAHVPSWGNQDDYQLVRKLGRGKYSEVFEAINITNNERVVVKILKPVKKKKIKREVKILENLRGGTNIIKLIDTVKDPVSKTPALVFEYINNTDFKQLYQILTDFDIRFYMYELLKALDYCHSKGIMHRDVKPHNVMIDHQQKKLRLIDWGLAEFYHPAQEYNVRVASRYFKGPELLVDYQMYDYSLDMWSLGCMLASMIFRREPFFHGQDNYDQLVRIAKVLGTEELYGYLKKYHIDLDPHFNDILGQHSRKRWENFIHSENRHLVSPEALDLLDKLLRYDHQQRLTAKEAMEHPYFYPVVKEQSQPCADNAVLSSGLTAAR

RET(V804L) = RET(V804L) (Homo sapiens, UniProt P07949, V804L); conditions: 1 µM, ATP at Km
[3] = target: GABAA1 (h) (alpha 1,beta 2,gamma 2) (Homo sapiens, UniProt P14867+P47870); experiment: biochemical; conditions: read-out: % Inhibition of Control Specific Binding
glucagon (h) = glucagon (h) (Homo sapiens, UniProt P47871); experiment: biochemical; conditions: read-out: % Inhibition of Control Specific Binding

Cn1ncc2cc(-c3cnc(N)c(Cl)c3N3CCC4(CCNC4=O)CC3)ccc21 [Compound 109, 8-(2-Amino-3-chloro-5-(1-methyl-1H-indazol-5-yl)pyridin-4-yl)-2,8-diazaspiro[4.5]decan-1-one]
inhibition at 10 µM (H3 (h)): 3% | inhibition at 10 µM (BLT1 (LTB4) (h)): 16% | Vd [1]: 1.4 L/kg | clearance [1]: 6 mL/min/kg | % effect (EPHA4): 5% | % effect (EPHA3): 5% | % effect (ARG): 5% | % effect (EPHB4): -3% | % effect (FER): 15% | % effect (FLT1): -8% | % effect (GSK3ALPHA): -18% | % effect (HCK): -4% | % effect (HIPK3): 18% | % effect (NEK6): 4% | % effect (EEF-2K): -6% | % effect (EGFR): 4% | % effect (JNK1ALPHA1): -6% | % effect (PAK5): -11% | % effect (JNK2ALPHA2): -5% | % effect (FAK): 6% | % effect (RSK4): -6% | % effect (PIM-2): -1% | % effect (PKCALPHA): 5% | % effect (PKCEPSILON): -21% | % effect (PKCZETA): 1% | % effect (ACK1): -11% | % effect (PKG1BETA): -7% | % effect (YES): -2% | % effect (ZIPK): 6% | % effect (CK1GAMMA1): -5% | % effect (PTK5): -12% | % effect (GRK6): 5% | % effect (CAMKIIBETA): 19% | % Inhibition of Control Specific Binding (AMPA): 3% | % Inhibition of Control Specific Binding (PCP): -1% | % Inhibition of Control Specific Binding [2]: -16% | % effect (CKIT(D816V)): -7% | % effect (FLT3(D835Y)): 21% | % effect (CK2ALPHA2): -13% | % effect (RET(V804L)): -7% | inhibition at 10 µM [3]: -12% | inhibition at 10 µM (glucagon (h)): -7%
